Data as given in patent US6803191B2, “Candida albicans two-component hybrid kinase gene, CaNik1, and use thereof” (University of Iowa Research Foundation, priority 1997, dated 2004).
Marks after values point to notes of the source that are not given here.

Tested on: homozygous deletion mutant (HH80)
Assay: Growth of CaNik1 deletion mutant HH80 spot plated on agar plates with supplements (osmotic agents, inhibitors, carbon sources)
Format: cell-based, Candida albicans
Settings: for Phenotypic effect in HH80: growth on agar plates: Lee's modified medium or YPD, 2 or 3 days at 25° C. and 37° C.; for Differential sensitivity: growth of mutant strain HH80 versus control strains CAI8 and CAI8U5: agar with modified Lee's medium plus ingredient, 25° C. and 37° C., three independent experiments
Description: Finally, growth of the CaNik1 deletion mutant HH80 was tested at 25° C. and 37° C. for differential sensitivity to osmotic strength and a variety of inhibitors.

Compound | Differential sensitivity: growth of mutant strain HH80 versus control strains CAI8 and CAI8U5 | also measured
O=S(=O)([O-])c1cc(Nc2nc(Nc3ccccc3)nc(N(CCO)CCO)n2)ccc1/C=C/c1ccc(Nc2nc(Nc3ccccc3)nc(N(CCO)CCO)n2)cc1S(=O)(=O)[O-].[Na+].[Na+] [Calcofluor] | no qualitative differences | Phenotypic effect in HH80: growth on agar plates (Calcofluor 20-40 μg/mL): +++^v
polymyxin B | no qualitative differences | –
OC[C@@H](O)[C@@H](O)[C@H](O)[C@@H](O)CO [Sorbitol] | no qualitative differences | Phenotypic effect in HH80: growth on agar plates (1.2 M Sorbitol): ++++
Cn1c(=O)c2c(ncn2C)n(C)c1=O [Caffeine] | no qualitative differences | –
O=S(=O)([O-])[O-].[Mg+2] [MgSO4] | no qualitative differences | Phenotypic effect in HH80: growth on agar plates (0.5 m MgSO4): ++
[Cl-].[Na+] [NaCl] | no qualitative differences | Phenotypic effect in HH80: growth on agar plates (1 M NaCl): ++; Phenotypic effect in HH80: growth on agar plates (1.5 M NaCl): +
[Cl-].[K+] [KCl] | no qualitative differences | Phenotypic effect in HH80: growth on agar plates (1 M KCl): ++
OC[C@@H](O)[C@H](O)[C@@H](O)CO [Xylitol] | – | Phenotypic effect in HH80: growth on agar plates (1 M Xylitol): ++++
